Patent US20230089073A1 (Carmot Therapeutics, Inc., priority 2021, published 2023)
pEC50: −log10 of the molar value.

Molecular target: T1, human GLP-1 receptor (Homo sapiens, UniProt P43220)
T1 construct: expressed in transfected cells
Test: GLP-1R cAMP Assay
Type: cell-based
Details: cAMP accumulation in CHO cells stably overexpressing the human GLP-1 receptor; 30 min treatment; HitHunter cAMP kit; read-out: EC50
Description: cAMP accumulation was measured in Chinese hamster ovary (CHO) cells stably overexpressing the human GLP-1 receptor using the HitHunter cAMP Assay for Small Molecules Kit (Eurofins). Briefly, cells were grown in Ham's F12 Nutrient Mix with 10% FBS, and lifted with Cell Dissociation Buffer, Enzyme free, PBS based (ThermoFisher). […] The anti-cAMP antibody reagent was then added to cells at a 1:2 ratio and 5 μL of mixture was seeded in 384-well small volume white assay plates, at 10,000 cells/well. Cells were then treated with 50 nL compound using an ECHO 550 acoustic dispenser (Labcyte) in a 20-point dose response format in triplicate for 30 min. Cells were then lysed, and detection reagents added according to the manufacturer's protocol. After overnight incubation, luminescence was measured using a Perkin Elmer Envision plate reader. Dose response curves were analyzed using GraphPad Prism 9.0.

T1 sequence (P43220 24-463): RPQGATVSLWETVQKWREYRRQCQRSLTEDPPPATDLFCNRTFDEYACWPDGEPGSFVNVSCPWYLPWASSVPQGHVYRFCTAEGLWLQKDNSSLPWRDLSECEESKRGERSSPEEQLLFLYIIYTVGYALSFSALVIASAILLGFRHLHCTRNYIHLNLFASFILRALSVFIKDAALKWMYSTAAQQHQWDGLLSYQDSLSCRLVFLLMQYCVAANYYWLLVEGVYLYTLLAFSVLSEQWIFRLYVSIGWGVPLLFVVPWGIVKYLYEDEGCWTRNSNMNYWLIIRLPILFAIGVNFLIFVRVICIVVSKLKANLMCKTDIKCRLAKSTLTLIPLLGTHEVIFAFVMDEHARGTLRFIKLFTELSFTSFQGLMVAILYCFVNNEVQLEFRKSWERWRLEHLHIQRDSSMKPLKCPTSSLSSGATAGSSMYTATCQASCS

Structure (SMILES) | pEC50
Cc1ccc(Oc2cccc(C(=O)N3CCN(Cc4nc5ccc(C(=O)O)cc5n4C[C@@H]4CCO4)CC3)c2)c(F)c1 [Compound 16, 2-({4-[3-(2-fluoro-4-methylphenoxy)benzoyl]piperazin-1-yl}methyl)-1-{[(2S)-oxetan-2-yl]methyl}-1H-1,3-benzodiazole-6-carboxylic acid] | < 6.30
Cc1ccc(N(C)c2cccc(C(=O)N3CCN(Cc4nc5ccc(C(=O)O)cc5n4C[C@@H]4CCO4)CC3)c2)c(Cl)c1 [Compound 51, 2-[(4-{3-[(2-chloro-4-methylphenyl)(methyl)amino]benzoyl}piperazin-1-yl)methyl]-1-{[(2S)-oxetan-2-yl]methyl}-1H-1,3-benzodiazole-6-carboxylic acid] | > 7.30
N#Cc1cc(Cl)ccc1OCc1cccc(OC2CCN(Cc3nc4ccc(C(=O)O)cc4n3Cc3cnco3)CC2)n1 [Compound 252, 2-{[4-({6-[(4-chloro-2-cyanophenoxy)methyl]pyridin-2-yl}oxy)piperidin-1-yl]methyl}-1-[(1,3-oxazol-5-yl)methyl]-1H-1,3-benzodiazole-6-carboxylic acid] | < 6.30
N#Cc1ccc(OCc2cc(OC3CCN(Cc4nc5c(F)cc(C(=O)O)cc5n4C[C@@H]4CCO4)CC3)ccn2)c(Cl)c1 [Compound 359] | > 7.30
N#Cc1cc(Cl)ccc1OCc1cccc(OC2CCN(Cc3nc4ccc(C(=O)O)cc4n3Cc3ncco3)CC2)n1 [Compound 251, 2-{[4-({6-[(4-chloro-cyanophenoxy)methyl]pyridin-2-yl}oxy)piperidin-1-yl]methyl}-1-[(1,3-oxazol-2-yl)methyl]-1H-1,3-benzodiazole-6-carboxylic acid] | < 6.30
O=C(O)c1ccc2nc(CN3CCC(Oc4cccc(COc5ccc(Cl)cc5Cl)c4)CC3)n(Cc3cnco3)c2c1 [Example 216, 2-((4-(3-((2,4-Dichlorophenoxy)methyl)phenoxy)piperidin-1-yl)methyl)-1-(oxazol-5-ylmethyl)-1H-benzo[d]imidazole-6-carboxylic acid] | > 7.30
CCn1cncc1Cn1c(CN2CCC(Cc3cc(COc4ccc(Cl)cc4Cl)ccc3F)CC2)nc2ccc(C(=O)O)cc21 [Compound 137, 2-{[4-({5-[(2,4-dichlorophenoxy)methyl]-2-fluorophenyl}methyl)piperidin-1-yl]methyl}-1-[(1-ethyl-1H-imidazol-5-yl)methyl]-1H-1,3-benzodiazole-6-carboxylic acid] | > 7.30
C[C@H]1C[C@@H](Oc2ccnc(COc3ccc(F)cc3F)c2)CCN1Cc1nc2ccc(C(=O)O)cc2n1C[C@@H]1CCO1 [Compound 497, 2-{[(2S,4S)-4-({2-[(2,4-difluorophenoxy)methyl]pyridin-4-yl}oxy)-2-methylpiperidin-1-yl]methyl}-1-{[(2S)-oxetan-2-yl]methyl}-1H-1,3-benzodiazole-6-carboxylic acid] | > 7.30
O=C(O)c1ccc2nc(CN3CCc4c([nH]c5c(OCc6ccc(Cl)cc6F)cccc45)C3)n(C[C@@H]3CCO3)c2c1 [Example 121, (S)-2-((8-((4-Chloro-2-fluorobenzyl)oxy)-1,3,4,9-tetrahydro-2H-pyrido[3,4-b]indol-2-yl)methyl)-1-(oxetan-2-ylmethyl)-1H-benzo[d]imidazole-6-carboxylic acid] | < 6.30
O=C(O)c1ccc2nc(CN3CCN(C(=O)c4ccc(COc5ccc(Cl)cc5F)o4)CC3)n(C[C@@H]3CCO3)c2c1 [Example 36, (S)-2-((4-(5-((4-Chloro-2-fluorophenoxy)methyl)furan-2-carbonyl)-piperazin-1-yl)methyl)-1-(oxetan-2-ylmethyl)-1H-benzo[d]imidazole-6-carboxylic acid] | < 6.30
C[C@H]1C[C@@H](Oc2cccc(COc3ccc(C#N)cc3F)c2)CCN1Cc1nc2ccc(C(=O)O)cc2n1C[C@@H]1CCO1 [Compound 319] | > 7.30
C[C@@H](Oc1ccc(Cl)cc1Cl)c1ccc(C(=O)N2CCN(Cc3nc4ccc(C(=O)O)cc4n3C[C@@H]3CCO3)CC2)o1 (relative stereo) [Example 94, 2-((4-(5-((R)-1-(2,4-dichlorophenoxy)ethyl)furan-2-carbonyl)piperazin-1-yl)methyl)-1-(((S)-oxetan-2-yl)methyl)-1H-benzo[d]imidazole-6-carboxylic acid] | < 6.30
O=C(O)c1cc(F)c2nc(CN3CCC(Oc4ccnc(COc5ccc(F)cc5Cl)n4)CC3)n(CC3(CF)CC3)c2c1 [Compound 327] | > 7.30
O=C(O)c1ccc2nc(CN3CCC(Oc4cccc(COc5ccc(C(F)F)cc5F)c4)CC3)n(C[C@@H]3CCO3)c2c1 [Compound 301] | > 7.30

Continued, values first:

pEC50 | Structure (SMILES)
> 7.30 | O=C(O)c1ccc2nc(CN3CCC(Oc4cc(COc5ccc(Cl)cc5F)ncc4F)CC3)n(C[C@@H]3CCO3)c2c1 [Compound 380, (S)-2-((4-((2-((4-chloro-2-fluorophenoxy)methyl)-5-fluoropyridin-4-yl)oxy)piperidin-1-yl)methyl)-1-(oxetan-2-ylmethyl)-1H-benzo[d]imidazole-6-carboxylic acid]
6.30 to 7.30 | Cc1ccc(C(C)c2cccc(C(=O)N3CCN(Cc4nc5ccc(C(=O)O)cc5n4C[C@@H]4CCO4)CC3)c2)c(Cl)c1 (stereo partly drawn) [Example 112, 2-((4-(3-(1-(2-Chloro-4-methylphenyl)ethyl)benzoyl)piperazin-1-yl)methyl)-1-(((S)-oxetan-2-yl)methyl)-1H-benzo[d]imidazole-6-carboxylic acid]
> 7.30 | O=C(O)c1ccc2nc(CN3CCC(Oc4ccnc(COc5ccc(Cl)cc5F)c4)CC3)n(Cc3ccno3)c2c1 [Compound 266, 2-{[4-({2-[(4-chloro-2-fluorophenoxy)methyl]pyridin-4-yl}oxy)piperidin-1-yl]methyl}-1-[(1,2-oxazol-5-yl)methyl]-1H-1,3-benzodiazole-6-carboxylic acid]
6.30 to 7.30 | O=C(O)c1ccc2nc(CN3CCN(C(=O)c4ccc(COc5ccc(C6CC6)cc5Cl)o4)CC3)n(C[C@@H]3CCO3)c2c1 [Compound 81, 2-[(4-{5-[(2-chloro-4-cyclopropylphenoxy)methyl]furan-2-carbonyl}piperazin-1-yl)methyl]-1-{[(2S)-oxetan-2-yl]methyl}-1H-1,3-benzodiazole-6-carboxylic acid]
> 7.30 | O=C(O)c1ccc2nc(CN3CCC(Oc4ccnc(COc5ccc(Cl)cc5F)c4)CC3)n(C[C@@H]3CCO3)c2c1 [Compound 250, 2-{[4-({2-[(4-chloro-2-fluorophenoxy)methyl]pyridin-4-yl}oxy)piperidin-1-yl]methyl}-1-{[(2S)-oxetan-2-yl]methyl}-1H-1,3-benzodiazole-6-carboxylic acid]
> 7.30 | Cc1ccc(OCc2cccc(CC3CCN(Cc4nc5ccc(C(=O)O)cc5n4C[C@@H]4CCO4)CC3)n2)c(C#N)c1 [Example 114, (S)-2-((4-((6-((2-Cyano-4-methylphenoxy)methyl)pyridin-2-yl)methyl)piperidin-1-yl)methyl)-1-(oxetan-2-ylmethyl)-1H-benzo[d]imidazole-6-carboxylic acid]
> 7.30 | CCn1cncc1Cn1c(CN2CCC(Oc3ccnc(COc4ccc(Cl)cc4CO)c3)CC2)nc2ccc(C(=O)O)cc21 [Compound 287, 2-({4-[(2-{[4-chloro-2-(hydroxymethyl)phenoxy]methyl}pyridin-4-yl)oxy]piperidin-1-yl}methyl)-1-[(1-ethyl-1H-imidazol-5-yl)methyl]-1H-1,3-benzodiazole-6-carboxylic acid]
